Assay results reported in patent US12590091B2, “1H-pyrrolo[3,2-C]pyridine and 1H-pyrrolo[2,3-C]pyridine derivatives as TLR9 inhibitors for the treatment of fibrosis” (BRISTOL-MYERS SQUIBB COMPANY, priority 2020, dated 2026).

Target: T1, human TLR7 (Homo sapiens, UniProt Q9NYK1)
T1 construct: host or cells: HEK-Blue cells
T1 sequence (Q9NYK1 27-1049): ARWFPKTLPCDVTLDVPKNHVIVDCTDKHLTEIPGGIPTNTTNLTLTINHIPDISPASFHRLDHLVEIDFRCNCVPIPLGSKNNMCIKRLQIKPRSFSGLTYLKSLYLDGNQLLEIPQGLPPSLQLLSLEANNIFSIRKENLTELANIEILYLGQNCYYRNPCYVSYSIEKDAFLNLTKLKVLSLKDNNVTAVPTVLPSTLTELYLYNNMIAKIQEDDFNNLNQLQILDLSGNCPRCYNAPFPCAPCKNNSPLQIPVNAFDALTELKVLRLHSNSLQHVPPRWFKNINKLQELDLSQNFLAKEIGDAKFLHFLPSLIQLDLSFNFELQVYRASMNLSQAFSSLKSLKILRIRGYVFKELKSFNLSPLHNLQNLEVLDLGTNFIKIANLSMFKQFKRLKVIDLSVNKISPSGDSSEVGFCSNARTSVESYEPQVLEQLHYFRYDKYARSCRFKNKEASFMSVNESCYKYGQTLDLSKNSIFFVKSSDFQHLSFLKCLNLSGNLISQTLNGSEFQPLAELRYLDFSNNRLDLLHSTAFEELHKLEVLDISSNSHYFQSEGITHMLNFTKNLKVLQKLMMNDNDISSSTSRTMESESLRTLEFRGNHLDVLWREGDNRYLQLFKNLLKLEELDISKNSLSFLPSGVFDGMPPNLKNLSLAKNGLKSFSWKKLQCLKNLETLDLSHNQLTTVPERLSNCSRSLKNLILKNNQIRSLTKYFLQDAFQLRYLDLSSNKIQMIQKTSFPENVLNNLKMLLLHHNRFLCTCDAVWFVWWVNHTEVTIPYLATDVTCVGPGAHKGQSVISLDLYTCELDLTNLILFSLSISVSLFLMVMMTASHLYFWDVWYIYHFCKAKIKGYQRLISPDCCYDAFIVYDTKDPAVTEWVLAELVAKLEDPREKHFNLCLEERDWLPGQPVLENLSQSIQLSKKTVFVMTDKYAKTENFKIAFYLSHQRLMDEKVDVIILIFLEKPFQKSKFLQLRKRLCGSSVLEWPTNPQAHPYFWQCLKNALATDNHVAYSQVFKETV
Assay: TLR7 inhibition reporter assay (HEK-Blue cells, SEAP reporter)
Assay type: cell-based
Conditions: HEK-Blue cells overexpressing human TLR7, stimulated with gardiquimod 7.5 μM, 22 hour incubation
In short: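 Agonists used: gardiquimod 7.5 μM (TLR7), R848 15.9 μM (TLR8), ODN2006 5 nM (TLR9), added after 30 min room-temperature compound pre-treatment (0.05 nM–50 μM) of receptor-overexpressing HEK-Blue cells. SEAP reporter (NF-κB/AP-1 driven) read after 22 h at 37 °C; inhibition scaled between agonist+DMSO and reference-inhibitor wells.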

Row | SMILES | IC50 [µM]
1 | CCOC(=O)N1CCC(N2CCC(c3cc4c(cn3)cc(-c3ccc(OC)c(OC)c3)n4C)CC2)CC1 [Example 7, Ethyl 4-(2-(3,4-dimethoxyphenyl)-1-methyl-1H-pyrrolo[3,2-c]pyridin-6-yl)-[1,4′-bipiperidine]-1′-carboxylate] | > 50
2 | COc1ccc(-c2cc3cnc(C4CCN(Cc5ccc(C)nc5)CC4)cc3n2C)cc1OC [Example 8, 2-(3,4-Dimethoxyphenyl)-1-methyl-6-(1-((6-methylpyridin-3-yl)methyl)piperidin-4-yl)-1H-pyrrolo[3,2-c]pyridine] | 6.8
3 | Cc1nc(-c2cc(F)c(N3CCN(C4CCOCC4)CC3)c(F)c2)cc2c1cc(-c1ccc(S(C)(=O)=O)cc1)n2C [Example 89, 6-(3,5-difluoro-4-(4-(tetrahydro-2H-pyran-4-yl)piperazin-1-yl)phenyl)-1,4-dimethyl-2-(4-(methylsulfonyl)phenyl)-1H-pyrrolo[3,2-c]pyridine] | > 50
4 | Cc1nc(-c2ccc(C3(O)CCN(CC(C)C)CC3)c(F)c2)cc2c1cc(-c1ccc(S(C)(=O)=O)cc1)n2C [Example 90, 4-(4-(1,4-dimethyl-2-(4-(methylsulfonyl)phenyl)-1H-pyrrolo[3,2-c]pyridin-6-yl)-2-fluorophenyl)-1-isobutylpiperidin-4-ol] | 7.8
5 | Cc1nc(-c2ccc(C3(O)CC4CCC(C3)N4CC(C)C)c(F)c2)cc2c1cc(-c1ccc(S(C)(=O)=O)cc1)n2C [Example 91, (1R,3r,5S)-3-(4-(1,4-dimethyl-2-(4-(methylsulfonyl)phenyl)-1H-pyrrolo[3,2-c]pyridin-6-yl)-2-fluorophenyl)-8-isobutyl-8-azabicyclo[3.2.1]octan-3-ol] | 30.8
6 | Cc1nc(-c2ccc(C3(O)CCN(C4CC4)CC3)c(F)c2)cc2c1cc(-c1ccc(S(C)(=O)=O)cc1)n2C [Example 93, 1-cyclopropyl-4-(4-(1,4-dimethyl-2-(4-(methylsulfonyl)phenyl)-1H-pyrrolo[3,2-c]pyridin-6-yl)-2-fluorophenyl)piperidin-4-ol] | 9.9
7 | Cc1nc(-c2cc(F)c(N3CCN4CCCC4C3)cc2F)cc2c1cc(-c1ccc(S(C)(=O)=O)cc1)n2C (stereo not drawn) [Example 97, 6-(2,5-difluoro-4-(hexahydropyrrolo[1,2-a]pyrazin-2(1H)-yl)phenyl)-1,4-dimethyl-2-(4-(methylsulfonyl)phenyl)-1H-pyrrolo[3,2-c]pyridine] | 3.8
8 | Cc1nc(-c2cc(F)c(N3CCN4CCCC4C3)c(F)c2)cc2c1cc(-c1ccc(S(C)(=O)=O)cc1)n2C (stereo not drawn) [Example 98, 6-(3,5-difluoro-4-(hexahydropyrrolo[1,2-a]pyrazin-2(1H)-yl)phenyl)-1,4-dimethyl-2-(4-(methylsulfonyl)phenyl)-1H-pyrrolo[3,2-c]pyridine] | 0.7

Now from value to compound:

Row | IC50 [µM] | SMILES
9 | 7 | COCCN1CCC(O)(c2ccc(-c3cc4c(cc(-c5ccc(S(C)(=O)=O)cc5)n4C)c(C)n3)cc2F)CC1 [Example 92, 4-(4-(1,4-dimethyl-2-(4-(methylsulfonyl)phenyl)-1H-pyrrolo[3,2-c]pyridin-6-yl)-2-fluorophenyl)-1-(2-methoxyethyl)piperidin-4-ol]
10 | 3.6 | Cc1nc(-c2cc(F)c(C3(O)CCN(CC(C)C)CC3)cc2F)cc2c1cc(-c1ccc(S(C)(=O)=O)cc1)n2C [Example 94, 4-(4-(1,4-dimethyl-2-(4-(methylsulfonyl)phenyl)-1H-pyrrolo[3,2-c]pyridin-6-yl)-2,5-difluorophenyl)-1-isobutylpiperidin-4-ol]
11 | 3.2 | COCCN1CCC(O)(c2cc(F)c(-c3cc4c(cc(-c5ccc(S(C)(=O)=O)cc5)n4C)c(C)n3)cc2F)CC1 [Example 95, 4-(4-(1,4-dimethyl-2-(4-(methylsulfonyl)phenyl)-1H-pyrrolo[3,2-c]pyridin-6-yl)-2,5-difluorophenyl)-1-(2-methoxyethyl)piperidin-4-ol]
12 | 2.9 | Cc1nc(-c2cc(F)c(C3(O)CCN(C4CC4)CC3)cc2F)cc2c1cc(-c1ccc(S(C)(=O)=O)cc1)n2C [Example 96, 1-cyclopropyl-4-(4-(1,4-dimethyl-2-(4-(methylsulfonyl)phenyl)-1H-pyrrolo[3,2-c]pyridin-6-yl)-2,5-difluorophenyl)piperidin-4-ol]
